According to paper PMC9133015 (Nature Communications, 2022):
“And” between values parts separate entries of the source, which are not always exact repeats. Identical values can stand only once.

Legend:
[1] = test system: DU145 cells; assay: Anti-proliferation activity assay (CCK8, 72 h); assay type: cell-based, human; details: DU145; for Relative proliferation rate (%) / optical density: replicates
[2] = test system: PC-3 cells; assay: Anti-proliferation activity assay (CCK8, 72 h); assay type: cell-based, human; details: PC-3; for Relative proliferation rate (%) / optical density: replicates
[3] = test system: RWPE-1 cells; assay: Anti-proliferation activity assay (CCK8, 72 h); assay type: cell-based; details: RWPE1; for Relative proliferation rate (%) / optical density: replicates
[4] = test system: 22Rv1 cells; assay: Colony formation assay; assay type: cell-based, human; details: 22Rv1, 0.5 μM, replicates
[5] = test system: DU145 cells; assay: Colony formation assay; assay type: cell-based, human; details: DU145, 2 μM, replicates
[6] = test system: PC-3 cells; assay: Colony formation assay; assay type: cell-based, human; details: 2 µM, replicates
[7] = test system: 22Rv1 cells; assay: Invasion assay (transwell); assay type: cell-based, human; details: 22Rv1, 0.5 μM, replicates
[8] = test system: PC-3 xenograft; assay: In vivo antitumor activity, PC-3 xenograft mouse model; design: species or system BALB/c nude mice; details: Palbociclib group; for tumor volume (Figure S10a): in mm³ (unit assumed)
[9] = test system: DU145 xenograft; assay: H&E and Ki67 staining of xenograft tumor tissues; assay type: in vivo, BALB/c nude mice; details: DU145, reference drug groups, replicates

CC(=O)c1c(C)c2cnc(Nc3ccc(N4CCNCC4)cn3)nc2n(C2CCCC2)c1=O [palbociclib]
Relative proliferation rate (%) mean ([1]; 0.0049 uM): 4.824%
Relative proliferation rate (%) ([1]; 0.0049 uM): 3.385% and 4.869% and 6.219%
optical density ([1]; 0.0049 uM): 0.999 and 1.016 and 0.95
Relative proliferation rate (%) mean ([1]; 0.078 uM): 19.5052%
Relative proliferation rate (%) ([1]; 0.078 uM): 16.5377% and 19.5693% and 22.4087%
optical density ([1]; 0.078 uM): 0.863 and 0.859 and 0.786
Relative proliferation rate (%) mean ([1]; 0.3125 uM): 28.7249%
Relative proliferation rate (%) ([1]; 0.3125 uM): 24.9516% and 28.7453% and 32.4778%
optical density ([1]; 0.3125 uM): 0.776 and 0.761 and 0.684
Relative proliferation rate (%) mean ([1]; 1.25 uM): 33.0518%
Relative proliferation rate (%) ([1]; 1.25 uM): 30.3675% and 33.0524% and 35.7354%
optical density ([1]; 1.25 uM): 0.720 and 0.715 and 0.651
Relative proliferation rate (%) mean ([1]; 5 uM): 54.1864%
Relative proliferation rate (%) ([1]; 5 uM): 49.8066% and 54.2135% and 58.539%
optical density ([1]; 5 uM): 0.519 and 0.489 and 0.420
Relative proliferation rate (%) mean ([1]; 20 uM): 62.4741%
Relative proliferation rate (%) ([1]; 20 uM): 57.4468% and 62.4532% and 67.5222%
optical density ([1]; 20 uM): 0.440 and 0.401 and 0.329
Relative proliferation rate (%) mean ([1]; 80 uM): 75.0057%
Relative proliferation rate (%) ([1]; 80 uM): 68.472% and 74.9064% and 81.6387%
optical density ([1]; 80 uM): 0.326 and 0.268 and 0.186
Relative proliferation rate (%) mean ([2]; 0.078 uM): 8.515%
Relative proliferation rate (%) ([2]; 0.078 uM): 4.665% and 8.515% and 12.3646%
optical density ([2]; 0.078 uM): 0.981 and 0.967 and 0.971
Relative proliferation rate (%) mean ([2]; 0.3125 uM): 12.5396%
Relative proliferation rate (%) ([2]; 0.3125 uM): 9.427% and 12.4882% and 15.704%
optical density ([2]; 0.3125 uM): 0.932 and 0.925 and 0.934
Relative proliferation rate (%) mean ([2]; 1.25 uM): 26.3574%
Relative proliferation rate (%) ([2]; 1.25 uM): 21.0884% and 26.3955% and 31.5884%
optical density ([2]; 1.25 uM): 0.812 and 0.778 and 0.758
Relative proliferation rate (%) mean ([2]; 5 uM): 54.2128%
Relative proliferation rate (%) ([2]; 5 uM): 49.8542% and 54.21% and 58.574%
optical density ([2]; 5 uM): 0.516 and 0.484 and 0.459
Relative proliferation rate (%) mean ([2]; 20 uM): 74.7111%
Relative proliferation rate (%) ([2]; 20 uM): 68.7075% and 74.7398% and 80.6859%
optical density ([2]; 20 uM): 0.322 and 0.267 and 0.214
Relative proliferation rate (%) mean ([2]; 80 uM): 84.0905%
Relative proliferation rate (%) ([2]; 80 uM): 77.7454% and 83.8221% and 90.704%
optical density ([2]; 80 uM): 0.229 and 0.171 and 0.103
Relative proliferation rate (%) mean ([3]; 0.078 uM): 4.3459%
Relative proliferation rate (%) ([3]; 0.078 uM): 2.8348% and 5.899% and 4.304%
optical density ([3]; 0.078 uM): 0.994 and 1.005 and 1.045
Relative proliferation rate (%) mean ([3]; 0.3125 uM): 4.485%
Relative proliferation rate (%) ([3]; 0.3125 uM): 1.76% and 7.21% and 4.487%
optical density ([3]; 0.3125 uM): 1.005 and 0.991 and 1.043
Relative proliferation rate (%) mean ([3]; 1.25 uM): 11.7464%
Relative proliferation rate (%) ([3]; 1.25 uM): 7.038% and 16.4794% and 11.7216%
optical density ([3]; 1.25 uM): 0.951 and 0.892 and 0.964
Relative proliferation rate (%) mean ([3]; 5 uM): 24.554%
Relative proliferation rate (%) ([3]; 5 uM): 19.1593% and 29.8689% and 24.6337%
optical density ([3]; 5 uM): 0.827 and 0.749 and 0.823
Relative proliferation rate (%) mean ([3]; 20 uM): 55.5924%
Relative proliferation rate (%) ([3]; 20 uM): 50.0489% and 61.1423% and 55.5861%
optical density ([3]; 20 uM): 0.511 and 0.415 and 0.485
Relative proliferation rate (%) mean ([3]; 80 uM): 75.0851%
Relative proliferation rate (%) ([3]; 80 uM): 68.3284% and 81.8352% and 75.0916%
optical density ([3]; 80 uM): 0.324 and 0.194 and 0.272
Colony formation (cell number) [4]: 250 cell number and 274 cell number and 246 cell number
Colony formation (cell number) [5]: 150 cell number and 158 cell number and 148 cell number
Colony formation (cell number) [6]: 78 cell number and 83 cell number and 81 cell number
Cell invasion (cell number) [7]: 531 cell number and 470 cell number and 513 cell number
body weight (Figure S10b) ([8]; day 1, individual mice, in g (unit assumed)): 20.3 and 18.7 and 20.4 and 19.9 and 20.5 and 20.1 and 19.3 and 19.6
tumor volume (Figure S10a) ([8]; day 1, individual mice): 71.756 and 85.3384 and 76.4514 and 97.6139 and 96.2115 and 81.8398 and 86.3514 and 80.8996
body weight (Figure S10b) ([8]; day 3, individual mice): 20.6 (2×) and 19.9 (2×) and 20.3 (2×) and 20.4 and 19.5
tumor volume (Figure S10a) ([8]; day 3, individual mice): 100.82 and 125.949 and 118.537 and 171.398 and 182.064 and 137.067 and 104.176 and 152.65
body weight (Figure S10b) ([8]; day 5, individual mice, in g (unit assumed)): 20.8 and 20.1 and 20.9 and 20.5 and 20.7 and 20.6 and 19.4 and 20.3
tumor volume (Figure S10a) ([8]; day 5, individual mice): 153.25 and 178.1 and 171.863 and 263.764 and 233.187 and 184.767 and 136.023 and 212
body weight (Figure S10b) ([8]; day 7, individual mice): 21.1 (2×) and 20.4 (3×) and 20.6 and 20.9 and 19.6
tumor volume (Figure S10a) ([8]; day 7, individual mice): 216.949 and 236.787 and 227.898 and 326.971 and 317.909 and 235.081 and 192.895 and 301.873
body weight (Figure S10b) ([8]; day 9, individual mice): 21.3 and 20.2 and 21.1 and 20.9 (2×) and 21.2 and 20.1 and 19.8
tumor volume (Figure S10a) ([8]; day 9, individual mice): 326.253 and 371.781 and 295.973 and 465.763 and 471.469 and 352.991 and 279.054 and 463.034
body weight (Figure S10b) ([8]; day 11, individual mice): 21 and 20.5 and 21.4 and 21.2 and 21.5 (2×) and 20.3 and 20.1
tumor volume (Figure S10a) ([8]; day 11, individual mice): 372.859 and 454.695 and 359.079 and 528.072 and 529.867 and 450.398 and 332.776 and 546.405
body weight (Figure S10b) ([8]; day 13, individual mice, in g (unit assumed)): 21.3 and 20.8 and 21.6 and 21.5 and 22 and 20.7 and 20.4 and 21.8
tumor volume (Figure S10a) ([8]; day 13, individual mice): 420.513 and 508.608 and 384.455 and 605.279 and 564.127 and 444.148 and 375.063 and 606.531
body weight (Figure S10b) ([8]; day 15, individual mice): 21.1 and 20.8 and 21.3 and 21.6 and 22.2 (2×) and 20.3 and 20.7
tumor volume (Figure S10a) ([8]; day 15, individual mice): 457.463 and 542.009 and 415.332 and 636.893 and 637.934 and 467.888 and 410.165 and 646.315
body weight (Figure S10b) ([8]; day 17, individual mice, in g (unit assumed)): 21.5 and 21.1 and 21.7 and 22 and 22.3 and 20.6 and 21 and 22.4
tumor volume (Figure S10a) ([8]; day 17, individual mice): 524.733 and 575.217 and 457.759 and 764.115 and 735.045 and 549.485 and 474.267 and 700.215
body weight (Figure S10b) ([8]; day 19, individual mice, in g (unit assumed)): 21.8 and 21.4 and 22 and 22.2 and 22.5 and 20.9 and 21.1 and 22.7
tumor volume (Figure S10a) ([8]; day 19, individual mice): 535.372 and 736.543 and 494.255 and 792.24 and 789.87 and 530.997 and 470.291 and 757.507
body weight (Figure S10b) ([8]; day 21, individual mice): 22.2 (2×) and 21.8 and 22.6 and 23 and 21.2 and 21.5 and 22.9
tumor volume (Figure S10a) ([8]; day 21, individual mice): 606.966 and 810.199 and 550.471 and 875.109 and 842.441 and 533.366 and 544.597 and 821.393
body weight (Figure S10b) ([8]; day 23, individual mice, in g (unit assumed)): 22.4 and 21.9 and 22.5 and 22.9 and 23.5 and 21.6 and 21.7 and 23.3
tumor volume (Figure S10a) ([8]; day 23, individual mice): 636.352 and 826.869 and 562.019 and 936.064 and 895.067 and 564.812 and 586.01 and 861.421
body weight (Figure S10b) ([8]; day 25, individual mice, in g (unit assumed)): 22.7 and 22.2 and 22.8 and 23.3
tumor volume (Figure S10a) ([8]; day 25, individual mice): 672.525 and 833.997 and 554.501 and 942.419
tumor weight (Figure S10c) ([8]; individual mice, in g (unit assumed)): 0.86 and 0.74 and 1.05 and 0.97 and 0.73 and 0.85 and 0.69 and 0.92
Positive rate ( % ) (Fig. 7f) [9]: 31.83% and 31.88% and 31.79%
